Source: patent publication US5468758A, “Crystalline forms of endo-2,3-dihydro-N-(8-methyl)-8-azabicyclo[3.2.1]oct-3-yl)-2-oxo-1H-benz imidazole-1-carboxamides” (Boehringer Ingelheim Italia S.p.A., priority 1992, dated 1995)
Structures can show the parent of a compound that is named as a salt.

Tests used:
Assay type in all cases: physicochemical
[1] = Moisture sorption/desorption studies (hygrostat, storage at different temperatures and relative humidity); settings: for water content (Table V): 11.2% RH, % on the weight of compound 1a
Experimental: The determination of the sorption isotherms was carried out in a hygrostat.
At suitable intervals, the sample was weighed by means of a sample balance. The atmosphere in the hygrostat and therefore around the sample of compound 1a (1b) and 2a (2b) was conditioned and kept by a saturated solutions of a suitable salt:
Na Cl saturated solution 75.3% RH/25° C. 74.8% RH/37° C.
KNO3 saturated solution 93.7% RH/25° C. 90.0% RH/37° C.
At the end of the experiment, after completing the hysteresis, that is the adsorption--desorption cycle of humidity, the compound was assayed for the title and degradation products by TLC and HPLC, the physical state by DSC and water content by TGA.

[2] = Moisture content during tablet manufacturing (mixing and tableting); settings: hydrochloride monohydrate; for Moisture content: % on the weight of compound 1a
From the text: As a consequence, storage of compound 2a may be effected in normal conditions and no particular precautions are needed to avoid exposure to moisture. The titer of compound 2a, when it is stored in normal conditions, is therefore maintained at difference with compound 1a which, in the same conditions, may show different titles according to the water content. The hygroscopicity may also influence the drug title immediately after the manufacturing of tablets. In fact during the process of manufacturing the drug exposed at normal ambient conditions where it can take up moisture.

[3] = Milling studies (FRITSCH Pulverisette 14 Rotor Speed Mill)
Experimental: The milling process was performed by the FRITSCH Pulverisette 14 Rotor Speed Mill supplied with circular sieve stainless steel with trapezoidal 0.080 mm diameter openings. The samples were passed through the mill twice at 20.000 rpm motor speed. The sample is assayed for title and degradation products by TLC and HPLC, physical state by DSC, water content by TGA, particle size distribution by Mercury Instrusion Porosimetry. The mi 11ed compounds are formulated in capsules and tablets at very low dose level (0.5 mg) by direct mixing and direct compression manufacturing method, respectively.

[4] = Accelerated stability tests in tablets and capsules; settings: for % degradation: tablets and capsules in PVC/PVDC blister with aluminium foil, hydrochloride monohydrate
From the text: (§1) Drug stability in these final compositions may be measured in accelerated stability tests or in long term real time stability tests. In accelerated stability tests, the above pharmaceutical compositions are exposed at high temperatures at different degrees of relative humidity for a period of time. Such tests are considered to be indicative of the stability of the composition at normal conditions. In long term real time stability studies the final compositions are exposed to normal conditions of storage at ambient temperatures at different degrees of relative humidity.
(*)according to H. Leven Berger Pharm. Act. Helv. 50 (1975) 88-91 it is
equivalent to 2 years storage at room temperature. Tablets and capsules
are packaged in PVC/PVDC blister with aluminium foil.
(*)according to "Guidelines for stability studies for Human Drugs and
Biologics" (1987) (USA/FDA) it is equivalent to 2 years at room
temperature. Tablets and capsules are packaged in PVC/PVDC blister with […]

[5] = Long-term real time stability tests in tablets and capsules; settings: for % degradation: tablets and capsules in PVC/PVDC blister with aluminium foil, hydrochloride monohydrate
From the text: as §1
Tablets and capsules are packaged in PVC/PVDC blister with aluminium foil

[6] = Water loss on desiccation under vacuum; settings: between room temperature and 60° C. under vacuum, most preferably 40° C., 0.1 mm Hg, 24 hours; in words
Experimental: Compounds 2a and 2b may be prepared by dissolving the compounds 1a and 1b, as free base, in a hot aqueous solvent, preferably a hot aqueous alkanol, by adding the required amount of gaseous hydrogen chloride, filtering the resulting solution and letting it cool to room temperature. In a preferred embodiment of the process according to the invention, compound 2a is prepared by using, as an hot aqueous alkanol, hot 85% aqueous ethanol. The crystals of compound 2a may be collected by vacuum filtration and are washed with a small amount of aqueous ethanol. In a preferred embodiment of the process according to the invention, compound 2b is prepared by using, as an hot aqueous alkanol, hot 95% aqueous isopropanol. The crystals of compound 2b may be collected by vacuum filtration and are washed with a small amount of aqueous isopropanol. […] Water content may be measured by usual techniques such as the Karl Fischer test. Alternatively, compounds 2a and 2b may be conveniently prepared by dissolving the anhydrous form of compounds 1a and 1b, as hydrochloride, in hot aqueous ethanol, preferably 85% ethanol (respectively in hot aqueous isopropanol, preferably 95% isopropanol) and allowing to cool the solution at room temperature; crystals of compound 2 a (respectively 2b), separated from the cooled solution, are collected by vacuum filtration and manipulated as previously described. […]

Compound: CN1C2CCC1CC(NC(=O)n1c(=O)[nH]c3ccccc31)C2 (stereo not drawn) [Compound 2a, Endo-2,3-dihydro-N-(8-methyl-8-azabicyclo[3.2.1]oct-3-yl)-2-oxo-1H-benzimidazole-1-carboxamide, hydrochloride monohydrate]
- water content in conditions of extreme dryness ([1]; 11 RH, 37° C., in words): not affected
- water content (Table V) ([1]; 37° C., 2 h): 5.32%
- water content (Table V) ([1]; 37° C., 4 h): 5.31%
- water content (Table V) ([1]; 37° C., 6 h): 5.31%
- water content (Table V) ([1]; 37° C., 21 days): 5.29%
- water content (Table V) ([1]; 37° C., time 0): 5.26%
- water content (Table III) ([1]; 37° C., 75% RH, 2 h, hydrochloride monohydrate): 5.8%
- water content (Table III) ([1]; 37° C., 75% RH, 4 h, hydrochloride monohydrate): 5.75%
- water content (Table III) ([1]; 37° C., 75% RH, 6 h, hydrochloride monohydrate): 5.79%
- water content (Table III) ([1]; 37° C., 75% RH, 1 d, hydrochloride monohydrate): 5.75%
- water content (Table III) ([1]; 37° C., 75% RH, 5 d, hydrochloride monohydrate): 5.8%
- water content (Table III) ([1]; 37° C., 75% RH, 9 d, hydrochloride monohydrate): 5.76%
- water content (Table III) ([1]; 37° C., 75% RH, 15 d, hydrochloride monohydrate): 5.8%
- water content (Table III) ([1]; 37° C., 94% RH, 2 h, hydrochloride monohydrate): 5.49%
- water content (Table III) ([1]; 37° C., 94% RH, 4 h, hydrochloride monohydrate): 5.47%
- water content (Table III) ([1]; 37° C., 94% RH, 6 h, hydrochloride monohydrate): 5.53%
- water content (Table III) ([1]; 37° C., 94% RH, 1 d, hydrochloride monohydrate): 5.5%
- water content (Table III) ([1]; 37° C., 94% RH, 5 d, hydrochloride monohydrate): 5.49%
- water content (Table III) ([1]; 37° C., 94% RH, 9 d, hydrochloride monohydrate): 5.48%
- water content (Table III) ([1]; 37° C., 94% RH, 15 d, hydrochloride monohydrate): 5.48%
- water content (Table III) ([1]; Room Temperature, 75% RH, 2 h, hydrochloride monohydrate): 5.46%
- water content (Table III) ([1]; Room Temperature, 75% RH, 4 h, hydrochloride monohydrate): 5.43%
- water content (Table III) ([1]; Room Temperature, 75% RH, 6 h, hydrochloride monohydrate): 5.37%
- water content (Table III) ([1]; Room Temperature, 75% RH, 1 d, hydrochloride monohydrate): 5.41%
- water content (Table III) ([1]; Room Temperature, 75% RH, 4 d, hydrochloride monohydrate): 5.42%
- water content (Table III) ([1]; Room Temperature, 75% RH, 8 d, hydrochloride monohydrate): 5.36%
- water content (Table III) ([1]; Room Temperature, 75% RH, 20 d, hydrochloride monohydrate): 5.41%
- water content (Table III) ([1]; Room Temperature, 94% RH, 2 h, hydrochloride monohydrate): 5.49%
- water content (Table III) ([1]; Room Temperature, 94% RH, 4 h, hydrochloride monohydrate): 5.53%
- water content (Table III) ([1]; Room Temperature, 94% RH, 6 h, hydrochloride monohydrate): 5.51%
- water content (Table III) ([1]; Room Temperature, 94% RH, 1 d, hydrochloride monohydrate): 5.49%
- water content (Table III) ([1]; Room Temperature, 94% RH, 4 d, hydrochloride monohydrate): 5.44%
- water content (Table III) ([1]; Room Temperature, 94% RH, 8 d, hydrochloride monohydrate): 5.48%
- water content (Table III) ([1]; Room Temperature, 94% RH, 20 d, hydrochloride monohydrate): 5.49%
- stability in condition of storage ([1]; different temperatures and relative humidity, in words): stable
- moisture absorption ([1]; different temperatures and relative humidity, in words, hydrochloride monohydrate): do not absorb moisture
- Moisture content ([2]; Final (b), tableting): 4.90%
- Moisture content ([2]; Intermediate (a), mixing): 4.90%
- Moisture content ([2]; Start): 4.90%
- water content during manufacturing ([2]; mixing (a) and tableting (b) phases, in words): stable water content
- particle size reduction (milling efficiency) ([3]; Mercury Porosimetry Analysis, in words): same rank order
- stability to milling ([3]; in words, in comparison with the anhydrous form): unexpected better stability to milling
- percentage of degradation products after milling ([3]; rotor speed of 20,000 rpm, hydrochloride monohydrate): 0.0%
- % degradation ([4]; 1 month/55° C., 43200 min): 0.5%
- % degradation ([4]; 3 months/40° C.-75% RH, 129600 min): 0.5%
- % degradation ([4]; 3 months/55° C., 129600 min): 1.6%
- % degradation ([4]; 6 months/40° C.-75% RH, 259200 min): 1.0%
- stability in tablets and capsules ([4]; accelerated tests, in comparison with compounds 1a and 1b, in words): better stability
- % degradation ([5]; 3 months/40° C., 129600 min): 0.4%
- % degradation ([5]; 6 months/30° C.-70% RH, 259200 min): 0.1%
- % degradation ([5]; 6 months/40° C., 259200 min): 0.6%
- stability in tablets and capsules ([5]; long term real time tests, in comparison with compounds 1a and 1b, in words): better stability
- loss of water content on desiccation [6]: without any appreciable loss of water content
